For this test, the target named is T1, Dimethylarginine dimethylaminohydrolase 1 (DDAH1) (Homo sapiens, UniProt O94760).
T1 construct: N-terminal fusion protein with glutathione S-transferase (DDAH1-GST)
In words: MicroScale Thermophoresis (MST) with purified recombinant protein; hydrolysis to L-citrulline also measured. The conditions noted are these: read-out: Binding status Kd (μM) ± confidence values.

We go through one compound from PMC10256801, “A multicentric consortium study demonstrates that dimethylarginine dimethylaminohydrolase 2 is not a dimethylarginine dimethylaminohydrolase” (Nature Communications, 2023).

Structures are written as SMILES.

One may read the Kd as a measure of binding affinity in units of concentration.

T1 sequence (O94760 whole entry, the tested form may be a part): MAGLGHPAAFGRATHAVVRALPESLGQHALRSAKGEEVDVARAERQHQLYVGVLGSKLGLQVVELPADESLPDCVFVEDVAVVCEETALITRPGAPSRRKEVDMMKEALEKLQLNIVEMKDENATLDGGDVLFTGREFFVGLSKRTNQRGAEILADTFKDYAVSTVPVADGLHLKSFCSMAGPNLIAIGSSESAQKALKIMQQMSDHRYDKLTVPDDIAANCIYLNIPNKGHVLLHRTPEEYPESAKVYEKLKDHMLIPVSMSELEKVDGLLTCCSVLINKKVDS

As for `CN(C)C(=N)NCCC[C@H](N)C(=O)O` [ADMA], the Kd amounted to 4.27 ± 0.46 µM.
